Assay results reported in patent US9321808B2, “Homo- and heterodimeric SMAC mimetic compounds as apoptosis inducers” (BioNTech AG, priority 2012, dated 2016).

B1: mature Smac protein: "second mitochondria-derived activator of caspases"; "N-terminal mitochondrial targeting sequence that is proteolytically removed during maturation to the mature polipeptide" (protein, UniProt Q9NR28 22-239, looked up)
Diablo IAP-binding …: LCVPVVANFKKRCFSELIRPWHKTVTIGFGVTLCAVPIAQKSEPHSLSSEALMRRAVSLVTDSTSTFLSQTTYALIEAITEYTKAVYTLTSLYRQYTSLLGKMNSEEEDEVWQVIIGARAEMTSKHQEYLKLETTWMTAVGLSEMAAEAAYQTGADQASITARNHIQLVKLQVEEVHQLSRKAETKLAEAQIEELRQKTQEEGEERAESEQEAYLRED

Tests used:
[1] = system: MDA-MB-231 (breast epithelial adenocarcinoma); test: Standalone cytotoxicity, MTT assay, MDA-MB-231; format: cell-based, human; details: Homo sapiens, MDA-MB-231, 96 hours treatment, reported as activity range, read-out: MDA-MB-231 IC50 (μM ± standard Deviation)
Method: Human cell lines MDA-MB-231 (breast epithelial adenocarcinoma), HL-60 (promieloblast cells) and PC-3 (prostate adenocarcinoma cells) were purchased from Istituto Zooprofilattico di Brescia (www.bs.izs.it). Reagents for cell culture were purchased from Sigma, unless otherwise indicated. Cells were grown on Plastic Petri dishes (Falcon) in RPMI 1640 medium supplemented with 2 mM L-glutamine, Penicillin (100 U/mL)/Streptomicin (100 μg/mL), 10% Fetal Bovine Serum. A sub-cultivation ratio of 1:4 was used. Cells were maintained at 37° C. in an atmosphere of 95% air and 5% CO2.
Cells were seeded in 96-well flat bottom cell culture plates at a density of 5000 cells/well in 100 μL of culture medium. HL-60 cells were immediately stimulated with the indicated compounds for 96 hours in the incubator. MDA-MB-231 and PC-3 cells were allowed to adhere for 24 hours. prior to be exposed to the compounds for 96 hours in the incubator. Cells were exposed to the following concentrations of the compounds: 50 nM, 100 nM, 200 nM, 500 nM, 1 μM, 5 μM, 10 μM, 50 μM and 100 μM. Each point was done in triplicate. The cellular growth inhibitory effect of our compounds was evaluated using the MTT assay (Sigma). After 96 hours of treatment, 10 μL of MTT reagent solution (5 mg of MTT powder/mL diluted in Phosphate Buffer Salt saline solution) were added in each well and allowed to react for 3 hours in the incubator. After 3 hours cells were solubilized in Lysis Buffer (10% SDS/0.1% HCl in water, 100 μL for each well) for 24 hours at 37° C. Finally, the absorbance was measured at 570 nm using a multiplate reader. Absorbance values were collected and IC50 values were determined using GraphPad Prism5 software. The experiments were repeated twice.
After 96 hours of treatment, 10 μl of MTT reagent solution (5 mg of MTT powder/ml diluted in Phosphate Buffer Salt saline solution) were added in each well and allowed to react for 3 hours in the incubator. After 3 hours cells were solubilized in Lysis Buffer (10% SDS/0.1% HCl in water, 100 μl for each well) for 24 hours at 37° C. Finally, the absorbance was measured at 570 nm using a multiplate reader. Absorbance values were collected and IC50/IC80 values were determined using GraphPad Prism5 software.

cIAP2-BIR3 = biological target: T1, cIAP2-BIR3 (Homo sapiens, UniProt Q13489); test: Fluorescence polarization binding, cIAP2 BIR3; details: displacement of fluorescent probe (2 nM) from cIAP2 (25 nM); average of three independent measurements; read-out: cIAP2 IC50(av)
T1 construct: 6xHis (C); made in house; host or cells: Escherichia coli BL21(DE3)
Method: (§1) The plasmids were used to transform Escherichia coli strain BL21(DE3). The recombinant proteins were purified using Ni-NTA (His-trap FFcrude, Ge-Healthcare), followed by gel filtration (Superdex 200, Ge-Healthcare). The recombinant proteins were eluted in 20 mM Tris pH 8.0, 250 mM NaCl and 10 mM DTT. Aliquoted proteins were conserved at −80° C.
(§2) The fluorescently-labelled Smac peptide (AbuRPF-K(5-Fam)-N1-12, final concentration of 2 nM), and increasing concentrations of cIAP1- and cIAP2-BIR3 from 0 to 20 μM, were added to an assay buffer consisting of 100 mM potassium phosphate, pH 7.5, 100 μg/ml bovine γ-globulin, 0.02% sodium azide. […] All experiments were performed in black, flat-bottom 96-well microplates (Greiner bio-one). 4-substituted azabicyclo[5.3.0]alkane Smac-mimetics were evaluated for their ability to displace the fluorescent probe from recombinant protein. […] After 15 minutes mixing on a shaker, and 3 hours incubation at room temperature, fluorescent polarization was measured on the Ultra plate reader (Tecan).

cIAP1-BIR3 = biological target: T2, cIAP1-BIR3 (Homo sapiens, UniProt Q13490); test: Fluorescence polarization binding, cIAP1 BIR3; details: displacement of fluorescent probe (2 nM) from cIAP1-BIR3 (10 nM); average of three independent measurements; read-out: cIAP1 IC50(av)
T2 construct: 6xHis (C); made in house; host or cells: Escherichia coli BL21(DE3)
Method: as §1, §2

human XIAP BIR3 domain = biological target: T3, human XIAP BIR3 domain (Homo sapiens, UniProt P98170); test: Fluorescence polarization competitive binding, XIAP BIR3; details: displacement of FITC-SMAC probe from XIAP BIR3-His-tag (60 nM); average of three independent measurements
T3 construct: human XIAP BIR3 domain from residue 241 to 356; made in house; host or cells: Escherichia coli BL21
Method: (§3) Data were analyzed using Prism 4.0 software (Graphpad Software).

[2] = biological target: T4, human XIAP linker-BIR2-BIR3 (Homo sapiens, UniProt P98170); test: Fluorescence polarization competitive binding, XIAP linker-BIR2-BIR3; details: displacement of SMAC-1F probe (1 nM) from XIAP linker-BIR2-BIR3-His-tag (3 nM); average of three independent measurements
T4 construct: human XIAP from residue 124 to 356 (linker-BIR2-BIR3); made in house; host or cells: Escherichia coli BL21
Method: as §3

XIAP = XIAP (Homo sapiens, UniProt P98170); details: technical background; read-out: Kd, binding to XIAP; cited from earlier work
XIAP, sequence (P98170 whole entry): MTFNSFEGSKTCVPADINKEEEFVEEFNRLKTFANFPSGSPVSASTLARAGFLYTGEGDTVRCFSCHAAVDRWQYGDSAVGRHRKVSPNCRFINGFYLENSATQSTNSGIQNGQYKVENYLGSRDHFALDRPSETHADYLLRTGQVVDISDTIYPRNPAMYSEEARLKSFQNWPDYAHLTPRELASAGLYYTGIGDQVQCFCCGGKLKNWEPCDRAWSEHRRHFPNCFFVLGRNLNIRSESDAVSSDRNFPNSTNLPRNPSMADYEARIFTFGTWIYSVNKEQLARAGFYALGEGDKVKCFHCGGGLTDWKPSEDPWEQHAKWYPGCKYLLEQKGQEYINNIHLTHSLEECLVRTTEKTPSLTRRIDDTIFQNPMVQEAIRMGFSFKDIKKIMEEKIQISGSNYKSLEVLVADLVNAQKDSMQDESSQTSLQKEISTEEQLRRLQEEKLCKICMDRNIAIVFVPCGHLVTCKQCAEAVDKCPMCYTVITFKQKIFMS

T2 sequence (Q13490 251-363): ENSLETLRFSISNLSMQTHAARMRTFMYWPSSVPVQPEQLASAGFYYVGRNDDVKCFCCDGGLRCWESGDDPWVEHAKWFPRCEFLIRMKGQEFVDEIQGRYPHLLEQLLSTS
T4 sequence (P98170 124-356): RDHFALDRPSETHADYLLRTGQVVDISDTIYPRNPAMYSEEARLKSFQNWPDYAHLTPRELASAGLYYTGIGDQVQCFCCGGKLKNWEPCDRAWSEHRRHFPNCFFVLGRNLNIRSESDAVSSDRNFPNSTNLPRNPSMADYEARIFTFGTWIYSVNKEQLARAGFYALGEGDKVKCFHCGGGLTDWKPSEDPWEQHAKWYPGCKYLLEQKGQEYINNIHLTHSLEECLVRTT
T3 sequence (P98170 241-356): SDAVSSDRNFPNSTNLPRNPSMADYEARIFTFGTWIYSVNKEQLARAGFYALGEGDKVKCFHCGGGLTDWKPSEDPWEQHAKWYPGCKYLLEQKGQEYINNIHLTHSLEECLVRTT
T1 sequence (Q13489 237-349): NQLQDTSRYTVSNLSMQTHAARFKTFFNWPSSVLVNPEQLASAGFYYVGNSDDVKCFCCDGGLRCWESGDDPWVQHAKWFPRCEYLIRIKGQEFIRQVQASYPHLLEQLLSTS

| Molecule | IC50 [1] | IC50 (cIAP2-BIR3) | IC50 (cIAP1-BIR3) | IC50 (human XIAP BIR3 domain) | IC50 [2] | Kd (XIAP) |
| --- | --- | --- | --- | --- | --- | --- |
| CC[C@H](NC)C(=O)N[C@@H]1C(=O)N2[C@@H](CC[C@@H]1CNC(=O)CCc1cn(CCOCCOCCOCCNC(=O)[C@@H](NC(=O)[C@@H]3CC[C@@H]4CC[C@H](CO)[C@H](NC(=O)[C@H](CC)NC)C(=O)N43)c3ccccc3)nn1)CC[C@H]2C(=O)NC(c1ccccc1)c1ccccc1 [Compound 34a] | 10 to 50 µM | 0.3 nM | 3.2 nM | 31.1 nM | 0.11 nM |  |
| B1 |  |  |  |  |  | 420 nM |
